Results on 26 molecules are retold here after patent US20240025906A1 (NEURON23, INC., priority 2022, published 2024).

For one test, the target named is T1, TYK2 JH2 (Homo sapiens, UniProt P29597).
T1 construct: purchased DiscoverX (KINOMEscan KdELECT service); host or cells: E. coli BL21-derived (T7 phage display) or HEK-293
Description: TYK2 JH2 binding assay (KINOMEscan KdELECT competitive binding). To be noted: TYK2 JH2 domain, KINOMEscan KdELECT (Assay A); read-out: Biochemical TYK2_DiscoverX_JH2_BND_Kd. An outline of the steps: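 Test compounds were titrated in 11 three-fold steps against JH2 fragment captured on ligand-loaded magnetic beads, with 1 h incubation at room temperature and DMSO at 0.9%. Eluted kinase was quantified by qPCR, and Kd was fitted from the dose series.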

The subject of test [1] is JAK1/TYK2 pSTAT5 (Tyr694/699) in THP-1 cell line. The test can be described thus: IFNa-stimulated JAK1/TYK2 pSTAT5 (Tyr694/699) inhibition cellular assay, AlphaLISA. The test is classed as cell-based. Conditions: Homo sapiens; THP-1 cells, IFNa-stimulated, AlphaLISA (Assay B); read-out: Cellular_THP1_IFNa-pSTATS_TYK2. An outline of the steps: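 An eight-point 6-fold titration of compound (0.04–10000 nM final) is given to THP-1 cells for 1 h before 30 min of IFNa exposure. Phospho-STAT5 is read by AlphaLISA at 615 nm. IC50 values are derived by logistic regression with bottom set to 0 and Hill slope set to −1.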
(Bead proximity is the source of the signal in Alpha formats.)

Molecules are shown by their SMILES. pIC50, pKd: −log10 of the molar value. A value given as a limit tells only on which side of the number the result lay.

T1 sequence (P29597 589-875 limits assumed): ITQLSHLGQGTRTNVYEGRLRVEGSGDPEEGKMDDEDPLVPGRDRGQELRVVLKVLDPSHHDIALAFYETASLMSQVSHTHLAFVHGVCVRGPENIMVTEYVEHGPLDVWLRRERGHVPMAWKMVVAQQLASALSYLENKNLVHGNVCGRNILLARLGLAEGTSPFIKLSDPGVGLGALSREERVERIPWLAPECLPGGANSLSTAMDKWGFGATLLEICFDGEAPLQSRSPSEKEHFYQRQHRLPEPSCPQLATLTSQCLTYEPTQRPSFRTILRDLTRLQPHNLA

With `CNc1ncc(C#Cc2ccc3nc(C(C)(F)F)n(C)c3c2)c2cc(NC(=O)C3CC3)ncc12` [Example 773, N-(5-((2-(1,1-difluoroethyl)-1-methyl-1H-benzo[d]imidazol-6-yl)ethynyl)-8-(methylamino)-2,7-naphthyridin-3-yl)cyclopropanecarboxamide], the pKd at TYK2 JH2 is at least 7.00. Also, the pIC50 in test [1] is at least 6.30.
Turning to `CNc1ncc(C#Cc2ccc3nc(CC(F)(F)F)n(C)c3c2)c2cc(NC(=O)C3CC3)ncc12` [Example 774, N-(5-((1-methyl-2-(2,2,2-trifluoroethyl)-1H-benzo[d]imidazol-6-yl)ethynyl)-8-(methylamino)-2,7-naphthyridin-3-yl)cyclopropanecarboxamide], the pKd on TYK2 JH2 was at least 7.00. Also, the pIC50 in test [1] is at least 6.30.
As for `CNc1ncc(C#Cc2ccc3nc(C(F)F)n(C)c3c2)c2cc(NC(=O)[C@H]3C[C@H]3C)ncc12` [Example 775, (1S,2R)—N-(5-((2-(difluoromethyl)-1-methyl-1H-benzo[d]imidazol-6-yl)ethynyl)-8-(methylamino)-2,7-naphthyridin-3-yl)-2-methylcyclopropane-1-carboxamide], the pKd on TYK2 JH2 is at least 7.00. For the same molecule, the pIC50 in test [1] was at least 6.30.
The like results for `[2H]C([2H])([2H])Nc1ncc(C#Cc2ccc(OC)cn2)c2cc(NC(=O)C3CC3)ncc12` [Example 778, N-(5-((5-methoxypyridin-2-yl)ethynyl)-8-((methyl-d3)amino)-2,7-naphthyridin-3-yl)cyclopropanecarboxamide] were, in that order, at least 7.00 and at least 6.30.
On to `[2H]C([2H])([2H])Nc1ncc(C#Cc2ccc(OC)cn2)c2cc(NC(=O)[C@H]3C[C@H]3C)ncc12` [Example 779, (1S,2R)—N-(5-((5-methoxypyridin-2-yl)ethynyl)-8-((methyl-d3)amino)-2,7-naphthyridin-3-yl)-2-methylcyclopropane-1-carboxamide], for which the pKd at TYK2 JH2 was at least 7.00. Also, the pIC50 in test [1] is at least 6.30.
Regarding `CCc1nc(NC)c2cnc(NC(=O)C3CC3)cc2c1C#Cc1ccc(OC)cc1` [Example 780, N-(6-ethyl-5-((4-methoxyphenyl)ethynyl)-8-(methylamino)-2,7-naphthyridin-3-yl)cyclopropanecarboxamide], the pKd at TYK2 JH2 was at least 7.00. In addition, the pIC50 in test [1] is under 6.30.
The matching figures for `CNc1nc(C)c(C#Cc2ccc(OC)cc2)c2cc(NC(=O)C3CC3)ncc12` [Example 781, N-(5-((4-methoxyphenyl)ethynyl)-6-methyl-8-(methylamino)-2,7-naphthyridin-3-yl)cyclopropanecarboxamide]: at least 7.00 and under 6.30.
Consider `CNc1ncc(/C=C/c2ccc(OCCOC)cc2)c2cc(NC(=O)C3CC3)ncc12` [Example 782, (E)-N-(5-(4-(2-methoxyethoxy)styryl)-8-(methylamino)-2,7-naphthyridin-3-yl)cyclopropanecarboxamide], for which the pKd at TYK2 JH2 was at least 7.00. Moreover, the pIC50 in test [1] was at least 6.30.
The like results for `CNc1ncc(/C=C/c2ccc(CC#N)cc2)c2cc(NC(=O)C3CC3)ncc12` [Example 783, (E)-N-(5-(4-(cyanomethyl)styryl)-8-(methylamino)-2,7-naphthyridin-3-yl)cyclopropanecarboxamide] were, in that order, at least 7.00 and at least 6.30.
`CNc1ncc(/C=C/c2ccc(OCC(C)(C)O)cc2)c2cc(NC(=O)C3CC3)ncc12` [Example 784, (E)-N-(5-(4-(2-hydroxy-2-methylpropoxy)styryl)-8-(methylamino)-2,7-naphthyridin-3-yl)cyclopropanecarboxamide]: on TYK2 JH2, the pKd is at least 7.00. Moreover, the pIC50 in test [1] was at least 6.30.
Turning to `C=C(c1ccc(OCC(C)(C)O)cc1)c1cnc(NC)c2cnc(NC(=O)C3CC3)cc12` [Example 785, N-(5-(1-(4-(2-hydroxy-2-methylpropoxy)phenyl)vinyl)-8-(methylamino)-2,7-naphthyridin-3-yl)cyclopropanecarboxamide], the pKd at TYK2 JH2 was at least 7.00. Also, the pIC50 in test [1] was under 6.30.
The matching figures for `CNc1ncc(/C=C/c2ccc(N3C[C@@H](C)O[C@@H](C)C3)cc2)c2cc(NC(=O)C3CC3)ncc12` [Example 786, N-(5-((E)-4-((2R,6S)-2,6-dimethylmorpholino)styryl)-8-(methylamino)-2,7-naphthyridin-3-yl)cyclopropanecarboxamide]: at least 7.00 and at least 6.30.
As to `CNc1ncc(/C=C/c2ccc(N3CCO[C@@H](C)C3)cc2)c2cc(NC(=O)C3CC3)ncc12` [Example 787, (S,E)-N-(8-(methylamino)-5-(4-(2-methylmorpholino)styryl)-2,7-naphthyridin-3-yl)cyclopropanecarboxamide], the pKd at TYK2 JH2 is at least 7.00. In test [1], the pIC50 was at least 6.30.
Consider `C=C(c1ccc(N2CCO[C@@H](C)C2)cc1)c1cnc(NC)c2cnc(NC(=O)C3CC3)cc12` [Example 788, (S)—N-(8-(methylamino)-5-(1-(4-(2-methylmorpholino)phenyl)vinyl)-2,7-naphthyridin-3-yl)cyclopropanecarboxamide], for which the pKd on TYK2 JH2 was 6.00 to 7.00. Moreover, in test [1], the pIC50 is under 6.30.
As for `CNc1ncc(/C=C/c2ccc(N3CCOCC3)cc2)c2cc(NC(=O)C3CC3)ncc12` [Example 792, (E)-N-(8-(methylamino)-5-(4-morpholinostyryl)-2,7-naphthyridin-3-yl)cyclopropanecarboxamide], the pKd on TYK2 JH2 was at least 7.00. The pIC50 in test [1] is at least 6.30.
The matching figures for `C=C(c1ccc(N2CCOCC2)cc1)c1cnc(NC)c2cnc(NC(=O)C3CC3)cc12` [Example 793, N-(8-(methylamino)-5-(1-(4-morpholinophenyl)vinyl)-2,7-naphthyridin-3-yl)cyclopropanecarboxamide]: at least 7.00 and under 6.30.
Consider `CNc1ncc(/C=C/c2ccc(OCCC#N)cc2)c2cc(NC(=O)C3CC3)ncc12` [Example 794, (E)-N-(5-(4-(2-cyanoethoxy)styryl)-8-(methylamino)-2,7-naphthyridin-3-yl)cyclopropanecarboxamide], for which the pKd at TYK2 JH2 is at least 7.00. Besides, in test [1], the pIC50 is at least 6.30.
The like results for `CNc1ncc(/C=C/c2ccc(O)cc2)c2cc(Nc3ccccn3)ncc12` [Example 795, (E)-4-(2-(1-(methylamino)-6-(pyridin-2-ylamino)-2,7-naphthyridin-4-yl)vinyl)phenol] were, in that order, at least 7.00 and at least 6.30.
The like results for `CNc1ncc(-c2cc3ccc(N4CCOCC4)cn3n2)c2cc(NC(=O)C3CC3)ncc12` [Example 796, N-(8-(methylamino)-5-(6-morpholinopyrazolo[1,5-a]pyridin-2-yl)-2,7-naphthyridin-3-yl)cyclopropanecarboxamide] were, in that order, at least 7.00 and at least 6.30.
`CNc1ncc(-c2cc3ccc(N4CCO[C@@H](C)C4)cn3n2)c2cc(NC(=O)[C@H]3C[C@H]3C)ncc12` [Example 798, (1S,2R)-2-methyl-N-(8-(methylamino)-5-(6-((S)-2-methylmorpholino)pyrazolo[1,5-a]pyridin-2-yl)-2,7-naphthyridin-3-yl)cyclopropane-1-carboxamide]: the pKd on TYK2 JH2 is at least 7.00. Also, the pIC50 in test [1] is at least 6.30.
The matching figures for `[2H]C([2H])([2H])Nc1ncc(/C=C/c2ccc(OCCC#N)cc2)c2cc(NC(=O)[C@H]3C[C@H]3C)ncc12` [Example 799, (1S,2R)—N-(5-((E)-4-(2-cyanoethoxy)styryl)-8-((methyl-d3)amino)-2,7-naphthyridin-3-yl)-2-methylcyclopropane-1-carboxamide]: at least 7.00 and at least 6.30.
The matching figures for `CNc1nc(CO)c(C#Cc2ccc(OC)cn2)c2cc(NC(=O)C3CC3)ncc12` [Example 800, N-(6-(hydroxymethyl)-5-((5-methoxypyridin-2-yl)ethynyl)-8-(methylamino)-2,7-naphthyridin-3-yl)cyclopropanecarboxamide]: at least 7.00 and at least 6.30.
For the molecule `CNc1ncc(C#Cc2ccc3oc(C)nc3c2)c2cc(NC(=O)C3CC3)ncc12` [Example 801, N-(8-(methylamino)-5-((2-methylbenzo[d]oxazol-5-yl)ethynyl)-2,7-naphthyridin-3-yl)cyclopropanecarboxamide], the pKd on TYK2 JH2 was at least 7.00. Besides, in test [1], the pIC50 was at least 6.30.
The matching figures for `CNc1ncc(C#Cc2ccnn2C)c2cc(NC(=O)C3CC3)ncc12` [Example 804, N-(5-((1-methyl-1H-pyrazol-5-yl)ethynyl)-8-(methylamino)-2,7-naphthyridin-3-yl)cyclopropanecarboxamide]: at least 7.00 and at least 6.30.
For the molecule `CCn1ncc(C#Cc2cnc(NC)c3cnc(NC(=O)C4CC4)cc23)n1` [Example 805, N-(5-((2-ethyl-2H-1,2,3-triazol-4-yl)ethynyl)-8-(methylamino)-2,7-naphthyridin-3-yl)cyclopropanecarboxamide], the pKd at TYK2 JH2 was at least 7.00. Also, the pIC50 in test [1] was at least 6.30.
With `CNc1ncc(C#Cc2ccc(-n3cccn3)cc2)c2cc(NC(=O)C3CC3)ncc12` [Example 806, N-(5-((4-(1H-pyrazol-1-yl)phenyl)ethynyl)-8-(methylamino)-2,7-naphthyridin-3-yl)cyclopropanecarboxamide], the pKd at TYK2 JH2 is at least 7.00. Further, in test [1], the pIC50 was at least 6.30.
